{
  "source": "patent US20210038668A1",
  "about": "“TRADITIONAL CHINESE MEDICINE COMPOSITION FOR PREVENTING AND/OR TREATING ISCHEMIC REPERFUSION INJURY” (TASLY PHARMACEUTICAL GROUP CO., LTD., priority 2018, published 2021)",
  "type_in_all_cases": "in vivo, C57BL/6 mice",
  "key": {"8-OHdG": {"system": "8-OHdG", "assay": "ELISA of 8-OHdG in brain tissue", "conditions": "brain tissue 24 hours after administration; tPA 10 mg/kg alone or + T541 20 mg/kg or ingredients at Table 7 doses", "description": "(§1) To compare the therapeutical effect on reperfusion injury caused by tPA thrombolysis between the traditional Chinese medicinal composition of the present invention and each ingredient (total saponins of Astragalus, the experiment was divided into the following group (tPA is combined with T541, individual ingredient thereof and compatibility of any two ingredients) specifically as follows: tPA+total saponins of Astragalus (tPA+HQ), tPA+ salvianolic acids (tPA+DS), tPA+Panax notoginseng saponins (tPA+SQ), tPA+ total saponins of Astragalus+salvianolic acids (tPA+HQ+DS), tPA+ total saponins of Astragalus+Panax notoginseng saponins (tPA+HQ+SQ), tPA+ salvianolic acids+Panax notoginseng saponins (tPA+DS+SQ) and tPA+T541. Normal saline served as an isovolumetric control. The usage number in each group is 6.\n(§2) ELISA adsorption kit was used to measure the change on the content of MDA, 8-hydroxyl-2′-deoxyguanosine (8-OHdG), adenosine triphosphate (ATP), adenosine diphosphate (ADP) and adenosine monophosphate (AMP) in the penumbra field of brain tissue cortex of the mode, and the change on the activity of mitochondrial complexes I, II, IV and V. 6 samples were used to repeat the independent experiment for at least three times for each group of data."}, "mitochondrial complex I": {"system": "mitochondrial complex I", "assay": "Mitochondrial complex I activity in brain tissue", "conditions": "brain tissue 24 hours after administration; tPA 10 mg/kg alone or + T541 20 mg/kg or ingredients at Table 7 doses", "description": "as §1, §2"}, "Occludin": {"system": "Occludin", "assay": "Western blotting of Occludin, cortex of ischemic penumbra", "conditions": "brain tissue 24 hours after administration, sham = 1.00; tPA 10 mg/kg alone; T541 20 mg/kg + tPA 10 mg/kg", "experimental": "(§3) After reperfused for 24 hours, mice were perfused by normal saline; Western blotting analysis was conducted to the penumbra field of infarcted right cerebral cortex. After perfused, mice brain tissue was taken out; cerebellum and prefrontal lobe were cut off; the brain tissue of right brain close to 1 cm of the central joint of left and right hemispheres along the sagittal view; infarcted penumbra field of the rest tissues was cut off along an 45° angle; the cerebral cortex of the penumbra field was peeled off and preserved at low temperature. Right cerebral cortex was taken and added 1×RIPA lysate and a Cocktail protease inhibitor (1:100, Cell Signaling Technology, US) for full pyrolysis and ultrasonic treatment, and then 17000 g were centrifuged for 30 minutes. Supernatant was taken and added 5×loading buffer by volume, boiled for 20 minutes in boiling water, and then preserved at −80° C. Excessive supernatant was taken out and quantified by a BCA protein quantification liquor (ThermoScientific, US) to measure absorbance value at 560 nm of ELIASA and to calculate the protein concentration according to a standard curve. […] The density of electrophoretic strips was analyzed by an image analysis software Quantityone. […]"}, "JAM-1": {"system": "JAM-1", "assay": "Western blotting of JAM-1, cortex of ischemic penumbra", "conditions": "brain tissue 24 hours after administration, sham = 1.00; tPA 10 mg/kg alone; T541 20 mg/kg + tPA 10 mg/kg", "experimental": "as §3"}, "[1]": {"system": "blood flow of cerebral cortex", "assay": "Cerebral blood flow by Laser Doppler Flowmetry", "experimental": "Mice were anesthetized via intraperitoneal injection by pentobarbital sodium (2%, 45 mg/kg), and neck kin was sterilized. A median incision was cut on the neck, exposed and isolated to obtain arteria carotis communis; a waterproof cushion was used to isolate arteria carotis communis with the length of about 2.5-3 mm from surrounding tissues. The isolated arteria carotis communis was wrapped by a filter paper soaked by 10% FeCl3 for about 1 mm (width), and the filter paper was removed 3 minutes later, the outside of blood vessel was washed by 0.9% normal saline. The waterproof cushion was removed. The neck incision was sutured. The start of Fe3+ stimulation was defined as the beginning of ischemia, and those mice meeting the following conditions were selected into the group: the blood vessel was blocked at the maximum diameter of the neck thrombus 10 minutes after ischemia; the blood flow of the carotid artery distal end was less than 20% of the base value 15 minutes after ischemia; and the thrombus was stable 4.5 hours after ischemia (before reperfusion); the carotid artery vessel at 60% and more of the diameter was blocked by the maximum diameter of the thrombus.\nMice were treated by medicaments or normal saline according to random grouping results 4.5 hours after ischemia. Mice femoral vein was intubated, and left femoral vein was injected tPA (tissue plasminogen activator) or normal saline; right femoral vein was injected the traditional Chinese medicinal composition of the present invention or normal saline; 10% of the total dose was injected via an injection pump, and the rest 90% were continuously injected intravenously for 1 hour with the rate of 0.1 ml/h. Three proportion groups were selected to the traditional Chinese medicinal composition of the present invention respectively below:\nA computer-linked Laser Doppler Flowmetry was used to measure the blood flow of cerebral cortex in the dominant region of bilateral middle cerebral arteries. Anesthetized mice were placed on a board in supine position; skin on the parietal bone of both sides was cut to fully expose the parietal bone; a computer-linked low-energy He—Ne laser probe was placed away 16-18 cm on the parietal bone to detect the blood flow of pia mater in the blood supply region of bilateral middle cerebral arteries of mice before ischemia (namely, a base value), 10 minutes after ischemia, 4.5 hours after ischemia (namely, before reperfusion), 1 hour after reperfusion, 2 hours after reperfusion and 24 hours after reperfusion. A cerebral blood flow analysis software LDPIwin 3.1 (PeriScan PIM3 System, PERIMED, Stockholm, Sweden) was used to calculate the blood flow of cerebral cortex in the same region dominated by bilateral MCA."}, "[2]": {"system": "ATP, ADP and AMP of cerebral cortex in ischemic penumbra", "assay": "ELISA of ATP, ADP and AMP in brain tissue", "conditions": "brain tissue 24 hours after administration", "description": "as §1, §2"}, "ZO-1": {"system": "ZO-1", "assay": "Western blotting of ZO-1, cortex of ischemic penumbra", "conditions": "brain tissue 24 hours after administration, sham = 1.00; tPA 10 mg/kg alone; T541 20 mg/kg + tPA 10 mg/kg", "experimental": "as §3"}, "[3]": {"conditions": "before administration, groups: tPA 10 mg/kg alone, T541 20 mg/kg, T141 12 mg/kg, T582 15 mg/kg each + tPA 10 mg/kg"}, "[4]": {"conditions": "iv, tPA 10 mg/kg alone, T541 20 mg/kg, T141 12 mg/kg, T582 15 mg/kg each + tPA 10 mg/kg"}, "[5]": {"conditions": "tPA 10 mg/kg alone or + T541 20 mg/kg or ingredients at Table 7 doses"}},
  "data": [
    {"substance": "tPA: tissue-type plasminogen activator (tPA) for thrombolysis", "values": [
      {"measurement": "8-OHdG", "setting": "8-OHdG", "result": "1.84 ± 0.11"},
      {"measurement": "Complex I activity", "setting": "mitochondrial complex I", "result": "1.75 ± 0.14"},
      {"measurement": "Occludin/β-actin", "setting": "Occludin", "result": "0.38 ± 0.02"},
      {"measurement": "JAM-1/β-actin", "setting": "JAM-1", "result": "0.52 ± 0.04"},
      {"measurement": "Cerebral blood flow, 10 minutes after FeCl3 simulation", "setting": "[1]; [3]", "result": "55.20 ± 5.69"},
      {"measurement": "Cerebral blood flow, Before FeCl3 simulation", "setting": "[1]; [3]", "result": "100.25 ± 1.19"},
      {"measurement": "recovery of brain blood flow (in words)", "setting": "[1]; high-dose T541 or tPA simply given, T141, T582 with tPA", "result": "no obvious recovery of the brain blood flow"},
      {"measurement": "Cerebral blood flow, 5.5 hours after FeCl3 simulation (1 hour after administration)", "setting": "[1]; [4]", "result": "47.56 ± 6.13"},
      {"measurement": "Cerebral blood flow, 6.5 hours after FeCl3 simulation (2 hours after administration)", "setting": "[1]; [4]", "result": "41.46 ± 4.49"},
      {"measurement": "Cerebral blood flow, 28.5 hours after FeCl3 simulation (24 hours after administration)", "setting": "[1]; [4]", "result": "42.40 ± 4.61"},
      {"measurement": "Cerebral blood flow, 4.5 hours after FeCl3 simulation", "setting": "[1]; start of administration, groups: tPA 10 mg/kg alone, T541 20 mg/kg, T141 12 mg/kg, T582 15 mg/kg each + tPA 10 mg/kg", "result": "49.58 ± 7.44"},
      {"measurement": "ADP", "setting": "[2]; [5]", "result": "2.51 ± 0.24"},
      {"measurement": "ADP/ATP", "setting": "[2]; [5]", "result": "2.45 ± 0.10"},
      {"measurement": "AMP", "setting": "[2]; [5]", "result": "2.66 ± 0.32"},
      {"measurement": "AMP/ATP", "setting": "[2]; [5]", "result": "2.68 ± 0.34"},
      {"measurement": "ATP", "setting": "[2]; tPA 10 mg/kg alone or + T541 20 mg/kg or ingredients at Table 7 doses (Astragalus saponins 10, Panax notoginseng saponins 2, salvianolic acids 8, in pairs 2 mg/kg)", "result": "1.05 ± 0.13"},
      {"measurement": "ZO-1/β-actin", "setting": "ZO-1", "result": "0.42 ± 0.05"}
    ]}
  ]
}
